In article PMC2962730 (Journal of neurochemistry, 2010):
Substitutions are numbered along the chain they refer to.

Assays:
hVAChT A330V = target: T1, hVAChT A330V (Homo sapiens, UniProt Q16572, A330V); assay: [3H]ACh transport; type: biochemical
T1 sequence (Q16572 1-532 A330V): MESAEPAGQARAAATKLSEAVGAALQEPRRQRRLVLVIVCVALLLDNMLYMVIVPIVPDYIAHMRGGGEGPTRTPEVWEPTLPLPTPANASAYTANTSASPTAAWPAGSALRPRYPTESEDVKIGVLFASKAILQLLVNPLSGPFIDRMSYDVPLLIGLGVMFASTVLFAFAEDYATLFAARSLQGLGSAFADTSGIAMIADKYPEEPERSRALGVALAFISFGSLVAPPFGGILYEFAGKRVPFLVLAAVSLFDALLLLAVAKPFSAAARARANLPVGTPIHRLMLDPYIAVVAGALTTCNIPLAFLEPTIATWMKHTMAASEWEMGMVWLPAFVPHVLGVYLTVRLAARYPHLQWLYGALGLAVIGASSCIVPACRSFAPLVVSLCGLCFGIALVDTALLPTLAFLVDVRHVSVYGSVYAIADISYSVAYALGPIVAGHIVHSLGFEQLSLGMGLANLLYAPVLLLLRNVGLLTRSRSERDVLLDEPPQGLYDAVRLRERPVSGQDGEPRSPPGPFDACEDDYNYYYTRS

hVAChT A321F = target: T2, hVAChT A321F (Homo sapiens, UniProt Q16572, A321F); assay: ACh equilibrium binding by competition against [3H]vesamicol
T2 sequence (Q16572 1-532 A321F): T1 sequence (Q16572 1-532 A330V) with A321F, V330A

hVAChT K317A = target: T3, hVAChT K317A (Homo sapiens, UniProt Q16572, K317A); assay: as above
T3 sequence (Q16572 1-532 K317A): T1 sequence (Q16572 1-532 A330V) with K317A, V330A

VAChT C391Y = conditions: ref Zhu et al. (2001); cited from earlier work
hVAChT W331L = target: T4, hVAChT W331L (Homo sapiens, UniProt Q16572, W331L); assay: [3H]ACh transport; type: biochemical
T4 sequence (Q16572 1-532 W331L): T1 sequence (Q16572 1-532 A330V) with V330A, W331L

hVAChT A334F = target: T5, hVAChT A334F (Homo sapiens, UniProt Q16572, A334F); assay: ACh equilibrium binding by competition against [3H]vesamicol; conditions: pH 7.4, monophasic fit, FHA fixed to 1
T5 sequence (Q16572 1-532 A334F): T1 sequence (Q16572 1-532 A330V) with V330A, A334F

[1] = read-out: KM, Michaelis-Menten constant for ACh transport, pH 7.4

Vmax/Bmax, ACh transport normalized to Bmax (hVAChT A330V; pH 7.4): 6.3 ± 1.3 min⁻¹
Km (hVAChT A330V; [1]): 2.2 ± 0.9 mM
Kd (hVAChT A321F): 15 ± 2 mM
FHA, fraction of the ACh sites that have high affinity (hVAChT A321F; A321F hVAChT, pH 7.4): 0.90 ± 0.06
Kd (hVAChT K317A): 6.9 ± 1.2 mM
FHA, fraction of the ACh sites that have high affinity (hVAChT K317A; K317A hVAChT, pH 7.4): 0.72 ± 0.06
Vmax/Bmax, ACh transport normalized to Bmax (hVAChT W331L; pH 7.4): 6.2 ± 1.2 min⁻¹
Km (hVAChT W331L; [1]): 4.6 ± 1.5 mM
FHA, fraction of the ACh sites that have high affinity (hVAChT A334F): 1.0
Structure (SMILES): CC(=O)OCC[N+](C)(C)C [ACh, acetylcholine]
higher KM value for transport (VAChT C391Y): 2.6 fold
